Reference: the supplement of paper PMC11451515

Key:
Conditions in all cases: 48 h
NOMO1 [1] = experiment: cell viability relative to DMSO control; higher = less cytotoxic
In short: (§1)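 NOMO1, SEM and P12-Ichikawa leukemia cells spent at least four passages adapting to each medium before use. They were seeded at 500 cells/well (NOMO1, SEM) or 1000 cells/well (P12-Ichikawa) in 5 μl in 1536-well plates and pin-dosed with library compounds in DMSO at 11 threefold steps from 47 μM down to 0.79 nM. After 48 h at 37°C, CellTiter-Glo One luminescence was read. Viability is reported as a percentage of the DMSO wells on each plate, with cell-free wells as background.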

P12-Ichikawa [2] = experiment: as above
In short: as §1

SEM cells [3] = experiment: as above
In short: as §1

NOMO1 [4] = experiment: AUC of viability dose-response curve (% viability x log10 dose units); higher = less sensitive
In short: (§2)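 Library compounds in DMSO were applied for 48 h at 37°C at 11 threefold doses (47 μM to 0.79 nM) to medium-adapted leukemia cells in 1536-well plates holding 500 or 1000 cells/well. Luminescence from CellTiter-Glo One was normalised plate by plate against DMSO and cell-free wells. Area under the curve came from trapezoidal integration of a log-logistic fit, after scaling curves that rose above full viability and discarding those that failed quality control. The fit had four parameters and used log10 doses.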

P12-Ichikawa [5] = experiment: as above
In short: as §2

SEM cells [6] = experiment: as above
In short: as §2

CCCCOc1ccc(C(=O)Nc2ccc(F)cc2F)cc1
cell viability [%]
Conditions	NOMO1 [1]	P12-Ichikawa [2]	SEM cells [3]
HPLM + 10% dialyzed FBS, 0.000781 µM	85.8	83.2	68.1
HPLM + 10% dialyzed FBS, 0.00234 µM	90.8	95.7	88.6
HPLM + 10% dialyzed FBS, 0.00702 µM	91.4	83.5	67.1
HPLM + 10% dialyzed FBS, 0.0211 µM	96.3	86.5	95.1
HPLM + 10% dialyzed FBS, 0.0632 µM	89.2	90.6	86.9
HPLM + 10% dialyzed FBS, 0.19 µM	85.6	85.3	88.3
HPLM + 10% dialyzed FBS, 0.569 µM	103	89.1	84.6
HPLM + 10% dialyzed FBS, 1.71 µM	104	97.1	30.1
HPLM + 10% dialyzed FBS, 5.12 µM	92.2	96	88.1
HPLM + 10% dialyzed FBS, 15.4 µM	97.8	102	92.5
HPLM + 10% dialyzed FBS, 46.1 µM	51	67.1	83.4
RPMI 5 mM glucose + 10% FBS, 0.000781 µM	81.7	78.9	68.6
RPMI 5 mM glucose + 10% FBS, 0.00234 µM	87.5	91.8	88.8
RPMI 5 mM glucose + 10% FBS, 0.00702 µM	81.5	82	65.9
RPMI 5 mM glucose + 10% FBS, 0.0211 µM	89.5	92.9	86.5
RPMI 5 mM glucose + 10% FBS, 0.0632 µM	86.3	89.4	83.4
RPMI 5 mM glucose + 10% FBS, 0.19 µM	94.7	89.5	92.7
RPMI 5 mM glucose + 10% FBS, 0.569 µM	88.1	89.4	81.5
RPMI 5 mM glucose + 10% FBS, 1.71 µM	93.8	93	48.3
RPMI 5 mM glucose + 10% FBS, 5.12 µM	92.9	89	88.4
RPMI 5 mM glucose + 10% FBS, 15.4 µM	88.3	88.1	101
RPMI 5 mM glucose + 10% FBS, 46.1 µM	83	84.3	73.5
RPMI 5 mM glucose + 10% dialyzed FBS, 0.000781 µM	79.5	84	78
RPMI 5 mM glucose + 10% dialyzed FBS, 0.00234 µM	89.2	83.7	89.7
RPMI 5 mM glucose + 10% dialyzed FBS, 0.00702 µM	76.8	79.2	70.6
RPMI 5 mM glucose + 10% dialyzed FBS, 0.0211 µM	97.5	87.1	90.1
RPMI 5 mM glucose + 10% dialyzed FBS, 0.0632 µM	89.6	83.9	84.7
RPMI 5 mM glucose + 10% dialyzed FBS, 0.19 µM	95.4	80.2	85.6
RPMI 5 mM glucose + 10% dialyzed FBS, 0.569 µM	91.9	86.7	86.2
RPMI 5 mM glucose + 10% dialyzed FBS, 1.71 µM	96.5	89.3	48.1
RPMI 5 mM glucose + 10% dialyzed FBS, 5.12 µM	97.8	92.5	88
RPMI 5 mM glucose + 10% dialyzed FBS, 15.4 µM	88.5	87.3	90.2
RPMI 5 mM glucose + 10% dialyzed FBS, 46.1 µM	92	86.6	76.7

AUC of viability dose-response curve
Conditions	NOMO1 [4]	P12-Ichikawa [5]	SEM cells [6]
HPLM + 10% dialyzed FBS	437	423	377
RPMI 5 mM glucose + 10% FBS	420	422	383
RPMI 5 mM glucose + 10% dialyzed FBS	433	408	385

CN(C)CCC=C1C2=C(C=CC=C2)\C=C/C3=C1C=CC=C3
cell viability [%]
Conditions	NOMO1 [1]	P12-Ichikawa [2]	SEM cells [3]
HPLM + 10% dialyzed FBS, 0.000781 µM	–	109	108
HPLM + 10% dialyzed FBS, 0.00234 µM	–	118	115
HPLM + 10% dialyzed FBS, 0.00702 µM	–	114	120
HPLM + 10% dialyzed FBS, 0.0211 µM	–	117	100
HPLM + 10% dialyzed FBS, 0.0632 µM	–	120	116
HPLM + 10% dialyzed FBS, 0.19 µM	–	123	124
HPLM + 10% dialyzed FBS, 0.569 µM	–	106	116
HPLM + 10% dialyzed FBS, 1.71 µM	–	105	101
HPLM + 10% dialyzed FBS, 5.12 µM	–	96.9	108
HPLM + 10% dialyzed FBS, 15.4 µM	–	105	99.1
HPLM + 10% dialyzed FBS, 46.1 µM	–	87.1	72.2
RPMI 5 mM glucose + 10% FBS, 0.000781 µM	108	–	108
RPMI 5 mM glucose + 10% FBS, 0.00234 µM	100	–	116
RPMI 5 mM glucose + 10% FBS, 0.00702 µM	95.5	–	106
RPMI 5 mM glucose + 10% FBS, 0.0211 µM	98	–	109
RPMI 5 mM glucose + 10% FBS, 0.0632 µM	95.9	–	109
RPMI 5 mM glucose + 10% FBS, 0.19 µM	90.3	–	112
RPMI 5 mM glucose + 10% FBS, 0.569 µM	98.7	–	93.1
RPMI 5 mM glucose + 10% FBS, 1.71 µM	106	–	68.7
RPMI 5 mM glucose + 10% FBS, 5.12 µM	94	–	102
RPMI 5 mM glucose + 10% FBS, 15.4 µM	77	–	101
RPMI 5 mM glucose + 10% FBS, 46.1 µM	16.4	–	84.9
RPMI 5 mM glucose + 10% dialyzed FBS, 0.000781 µM	98.7	115	112
RPMI 5 mM glucose + 10% dialyzed FBS, 0.00234 µM	99	109	108
RPMI 5 mM glucose + 10% dialyzed FBS, 0.00702 µM	107	105	129
RPMI 5 mM glucose + 10% dialyzed FBS, 0.0211 µM	104	115	130
RPMI 5 mM glucose + 10% dialyzed FBS, 0.0632 µM	114	119	119
RPMI 5 mM glucose + 10% dialyzed FBS, 0.19 µM	103	107	128
RPMI 5 mM glucose + 10% dialyzed FBS, 0.569 µM	107	111	112
RPMI 5 mM glucose + 10% dialyzed FBS, 1.71 µM	95.3	102	106
RPMI 5 mM glucose + 10% dialyzed FBS, 5.12 µM	99.3	106	116
RPMI 5 mM glucose + 10% dialyzed FBS, 15.4 µM	66.6	105	108
RPMI 5 mM glucose + 10% dialyzed FBS, 46.1 µM	21.2	84.1	81.7

AUC of viability dose-response curve
Conditions	NOMO1 [4]	P12-Ichikawa [5]	SEM cells [6]
HPLM + 10% dialyzed FBS	418	449	459
RPMI 5 mM glucose + 10% FBS	440	401	438
RPMI 5 mM glucose + 10% dialyzed FBS	438	469	466
